This is an account of results in US11117947B2, “Double-acylated GLP-1 derivatives” (Novo Nordisk A/S, priority 2011, dated 2021).

Series [1] can be described thus: Estimate of oral bioavailability: gut injection in rat (caprate), exposure in plasma. It is filed as in vivo. Particulars: injection in jejunum, 1000 uM in 55 mg/ml sodium caprate, plasma concentration (pM) at 30 min divided by dosing solution concentration (μM), mean n=4. The method, boiled down: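 Male Sprague Dawley rats (~240 g, n=4) received 100 μl of 1000 uM derivative in 55 mg/ml sodium caprate by catheter into proximal or mid jejunum. Tail-vein EDTA plasma was sampled up to 240 min. Peptide was quantified by two-antibody bead chemiluminescence immunoassay, giving mean concentration-time profiles (pmol/l).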

The target of series [2] is T1, human GLP-1 receptor (Homo sapiens, UniProt P43220).
T1 construct: expressed in transfected cells; membranes
T1 sequence (P43220 24-463): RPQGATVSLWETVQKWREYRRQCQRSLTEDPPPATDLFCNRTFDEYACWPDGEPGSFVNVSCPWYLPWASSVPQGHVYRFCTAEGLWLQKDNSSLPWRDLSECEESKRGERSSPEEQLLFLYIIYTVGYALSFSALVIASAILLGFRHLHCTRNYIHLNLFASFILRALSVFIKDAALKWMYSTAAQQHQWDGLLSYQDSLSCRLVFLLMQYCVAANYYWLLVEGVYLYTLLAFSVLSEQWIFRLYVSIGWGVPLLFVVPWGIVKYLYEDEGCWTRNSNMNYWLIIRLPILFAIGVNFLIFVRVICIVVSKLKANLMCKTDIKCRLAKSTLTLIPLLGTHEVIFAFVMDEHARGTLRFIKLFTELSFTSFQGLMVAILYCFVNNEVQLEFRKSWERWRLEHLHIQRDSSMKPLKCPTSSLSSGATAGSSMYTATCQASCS
As to the kind of experiment: In vitro potency: stimulation of cAMP formation (AlphaScreen cAMP Assay) in membranes expressing the human GLP-1 receptor. It is filed as biochemical. The conditions noted are these: membranes from BHK467-12A (tk-ts13) expressing the human GLP-1 receptor. The procedure:
Purified plasma membranes from a stable transfected cell line, BHK467-12A (tk-ts13), expressing the human GLP-1 receptor were stimulated with the GLP-1 analogue or derivative in question, and the potency of cAMP production was measured using the AlphaScreen™ cAMP Assay Kit from Perkin Elmer Life Sciences. The basic principle of the AlphaScreen Assay is a competition between endogenous cAMP and exogenously added biotin-cAMP. The capture of cAMP is achieved by using a specific antibody conjugated to acceptor beads.
A stable transfected cell line and a high expressing clone were selected for screening. The cells were grown at 5% CO2 in DMEM, 5% FCS, 1% Pen/Strep (Penicillin/Streptomycin) and 0.5 mg/ml of the selection marker G418.
Cells at approximately 80% confluence were washed 2× with PBS and harvested with Versene (aqueous solution of the tetrasodium salt of ethylenediaminetetraacetic acid), centrifuged 5 min at 1000 rpm and the supernatant removed. The additional steps were all performed on ice. The cell pellet was homogenised by the Ultrathurax for 20-30 s in 10 ml of Buffer 1 (20 mM Na-HEPES, 10 mM EDTA, pH=7.4), centrifuged 15 min at 20,000 rpm and the pellet resuspended in 10 ml of Buffer 2 (20 mM Na-HEPES, 0.1 mM EDTA, pH=7.4). The suspension was homogenised for 20-30 s and centrifuged 15 min at 20,000 rpm. Suspension in Buffer 2, homogenisation and centrifugation was repeated once and the membranes were resuspended in Buffer 2. The protein concentration was determined and the membranes stored at −80° C. until use.
The final volume per well was 50 μl.
AlphaScreen cAMP Assay Kit from Perkin Elmer Life Sciences (cat. No: 6760625M); containing Anti-cAMP Acceptor beads (10 U/μl), Streptavidin Donor beads (10 U/μl) and Biotinylated-cAMP (133 U/μl).
cAMP standard (dilution factor in assay=5): cAMP Solution: 5 μL of a 5 mM cAMP-stock+495 μL AlphaScreen Buffer.
Membranes were prepared from hGLP-1/BHK 467-12A cells with a concentration of 6 μg/well corresponding to 0.6 mg/ml (the amount of membranes used pr. well may vary)
“No membranes”: Acceptor Beads (15 μg/ml final) in AlphaScreen buffer
“6 μg/well membranes”: membranes+Acceptor Beads (15 μg/ml final) in AlphaScreen buffer
An aliquot (10 μl) of “No membranes” was added to the cAMP standard (per well in duplicate wells) and the positive and negative controls
An aliquot (10 μl) of “6 μg/well membranes” was added to GLP-1 and analogues (per well in duplicate or triplicate wells)
Pos. Control: 10 μl “no membranes”+10 μl AlphaScreen Buffer
Neg. Control: 10 μl “no membranes”+10 μl cAMP Stock Solution (50 μM)
1. Make the AlphaScreen Buffer.
2. Dissolve and dilute the GLP-1/Analogues/cAMP standard in AlphaScreen Buffer.
4. Add the cAMP/GLP-1/Analogues to the plate: 10 μl per well.
5. Prepare membrane/Acceptor Beads solution and add this to the plates: 10 μl per well.
6. Add the Donor Beads: 30 μl per well.
(In general: Cyclic AMP is a second messenger, typically raised through Gs and lowered through Gi signalling.)

Series [3] deals with T1, human GLP-1 receptor. Put plainly: GLP-1 receptor binding: displacement of 125I-GLP-1 (SPA) at low and high albumin. In outline: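 Membranes from hamster cells stably transfected with the receptor, with WGA SPA beads and 0.06 nM [^125I]-GLP-1(7-36)NH2, incubated 120 min at 30 °C with shaking.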
Background: Displacement assays read how much labelled ligand stays bound in the presence of the test substance.

[4] abbreviates: low albumin, 0.001% HSA, read-out: IC50/nM (low HSA).

Molecules are shown by their SMILES. Like-named read-outs stand apart in the source and are kept apart here. Numbered stars: 1 amine (or outer) side, 2 acyl side, 3 side chain; on linkers, the order of the positions; unused ones are H or OH. Square brackets hold non-standard residues; d marks the D form. Side chains are listed from the residue outwards. Peptide text beside a SMILES is read from it. * marks the point of attachment. Decanoyl(10-(4-HOOC-PhO)) = O=C(O)c1ccc(OCCCCCCCCCC(=O)*)cc1; d(γGlu) = O=C(O)[C@@H](CCC(=O)[*:2])N[*:1]; γGlu = O=C(O)[C@H](CCC(=O)[*:2])N[*:1]; C14 diacid = O=C(O)CCCCCCCCCCCCC(=O)*; AEEA = NCCOCCOCC(=O)O; Aib = CC(C)(N)C(=O)O

On to `CC[C@H](C)[C@H](NC(=O)[C@H](Cc1ccccc1)NC(=O)[C@H](CCCCNC(=O)COCCOCCNC(=O)COCCOCCNC(=O)CC[C@H](NC(=O)CCCCCCCCCOc1ccc(C(=O)O)cc1)C(=O)O)NC(=O)[C@H](Cc1c[nH]cn1)NC(=O)[C@H](C)NC(=O)[C@H](C)NC(=O)[C@H](CCC(N)=O)NC(=O)[C@H](CCC(=O)O)NC(=O)[C@H](CCC(=O)O)NC(=O)[C@H](CC(C)C)NC(=O)[C@H](Cc1ccc(O)cc1)NC(=O)[C@H](CO)NC(=O)[C@H](CO)NC(=O)[C@@H](NC(=O)[C@H](CC(=O)O)NC(=O)[C@H](CO)NC(=O)[C@@H](NC(=O)[C@H](Cc1ccccc1)NC(=O)[C@@H](NC(=O)CNC(=O)[C@H](CCC(=O)O)NC(=O)[C@H](C)NC(=O)[C@@H](N)Cc1c[nH]cn1)[C@@H](C)O)[C@@H](C)O)C(C)C)C(=O)N[C@@H](CCC(=O)O)C(=O)N[C@@H](Cc1c[nH]c2ccccc12)C(=O)N[C@@H](CC(C)C)C(=O)N[C@H](C(=O)N[C@@H](CCCNC(=N)N)C(=O)NCC(=O)N[C@@H](CCCCNC(=O)COCCOCCNC(=O)COCCOCCNC(=O)CC[C@H](NC(=O)CCCCCCCCCOc1ccc(C(=O)O)cc1)C(=O)O)C(=O)NCC(=O)N[C@@H](CCC(=O)O)C(=O)O)C(C)C` [Example 21, N^ε27-[2-[2-[2-[[2-[2-[2-[[(4S)-4-carboxy-4-[10-(4-carboxyphenoxy)decanoylamino]butanoyl]amino]ethoxy]ethoxy]acetyl]amino]ethoxy]ethoxy]acetyl], N^ε36-[2-[2-[2-[[2-[2-[2-[[(4S)-4-carboxy-4-[10-(4-carboxyphenoxy)decanoylamino]butanoyl]amino]ethoxy]ethoxy]acetyl]amino]ethoxy]ethoxy]acetyl]-[Glu^22,His^26,Lys^27,Glu^30,Arg^34,Lys^36]-GLP-1-(7-37)-peptidyl-Glu] (H-HAEGTFTSDVSSYLEEQAAHK([AEEA-AEEA-γGlu-Decanoyl(10-(4-HOOC-PhO))])FIEWLVRGK([AEEA-AEEA-γGlu-Decanoyl(10-(4-HOOC-PhO))])GE-OH; N-terminus and C-terminus assumed), for which the “Dose-corrected exposure at 30 min” value in series [1] is recorded as 140. This compound also yielded an EC50 at human GLP-1 receptor [2] of 0.052 nM.
In turn, `CC[C@H](C)[C@H](NC(=O)[C@H](Cc1ccccc1)NC(=O)[C@H](CCCCNC(=O)COCCOCCNC(=O)COCCOCCNC(=O)CC[C@H](NC(=O)CCCCCCCCCOc1ccc(C(=O)O)cc1)C(=O)O)NC(=O)[C@H](CCCNC(=N)N)NC(=O)[C@H](C)NC(=O)[C@H](CCCCNC(=O)COCCOCCNC(=O)COCCOCCNC(=O)CC[C@H](NC(=O)CCCCCCCCCOc1ccc(C(=O)O)cc1)C(=O)O)NC(=O)[C@H](CCC(N)=O)NC(=O)[C@H](CCC(=O)O)NC(=O)[C@H](CCC(=O)O)NC(=O)[C@H](CC(C)C)NC(=O)[C@H](Cc1ccc(O)cc1)NC(=O)[C@H](CO)NC(=O)[C@H](CO)NC(=O)[C@@H](NC(=O)[C@H](CC(=O)O)NC(=O)[C@H](CO)NC(=O)[C@@H](NC(=O)[C@H](Cc1ccccc1)NC(=O)[C@@H](NC(=O)CNC(=O)[C@H](CCC(=O)O)NC(=O)[C@H](C)NC(=O)[C@@H](N)Cc1c[nH]cn1)[C@@H](C)O)[C@@H](C)O)C(C)C)C(=O)N[C@@H](C)C(=O)N[C@@H](Cc1c[nH]cn1)C(=O)N[C@@H](CC(C)C)C(=O)N[C@H](C(=O)NCC(=O)O)C(C)C` [Example 25, N^ε24-[2-[2-[2-[[2-[2-[2-[[(4S)-4-carboxy-4-[10-(4-carboxyphenoxy)decanoylamino]butanoyl]amino]ethoxy]ethoxy]acetyl]amino]ethoxy]ethoxy]acetyl], N^ε27-[2-[2-[2-[[2-[2-[2-[[(4S)-4-carboxy-4-[10-(4-carboxyphenoxy)decanoylamino]butanoyl]amino]ethoxy]ethoxy]acetyl]amino]ethoxy]ethoxy]acetyl]-[Glu^22,Lys^24,Arg^26,Lys^27,His^31,Gly^34]-GLP-1-(7-34)-peptide] (H-HAEGTFTSDVSSYLEEQK([AEEA-AEEA-γGlu-Decanoyl(10-(4-HOOC-PhO))])ARK([AEEA-AEEA-γGlu-Decanoyl(10-(4-HOOC-PhO))])FIAHLVG-OH; N-terminus and C-terminus assumed) displayed an EC50 at human GLP-1 receptor [2] of 0.38 nM.
`CC[C@H](C)[C@H](NC(=O)[C@H](Cc1ccccc1)NC(=O)[C@H](CCCCNC(=O)CC[C@H](NC(=O)COCCOCCNC(=O)COCCOCCNC(=O)CC[C@@H](NC(=O)CCCCCCCCCOc1ccc(C(=O)O)cc1)C(=O)O)C(=O)O)NC(=O)[C@H](CCCNC(=N)N)NC(=O)[C@@H](NC(=O)[C@H](C)NC(=O)[C@H](CCC(N)=O)NC(=O)CNC(=O)[C@H](CCC(=O)O)NC(=O)[C@H](CC(C)C)NC(=O)[C@H](Cc1ccc(O)cc1)NC(=O)[C@H](CO)NC(=O)[C@H](CO)NC(=O)[C@@H](NC(=O)[C@H](CC(=O)O)NC(=O)[C@H](CO)NC(=O)[C@@H](NC(=O)[C@H](Cc1ccccc1)NC(=O)[C@@H](NC(=O)CNC(=O)[C@H](CCC(=O)O)NC(=O)[C@H](C)NC(=O)[C@@H](N)Cc1c[nH]cn1)[C@@H](C)O)[C@@H](C)O)C(C)C)C(C)C)C(=O)N[C@@H](C)C(=O)N[C@@H](Cc1c[nH]c2ccccc12)C(=O)N[C@@H](CC(C)C)C(=O)N[C@H](C(=O)N[C@@H](CCC(N)=O)C(=O)NCC(=O)N[C@@H](CCCCNC(=O)CC[C@H](NC(=O)COCCOCCNC(=O)COCCOCCNC(=O)CC[C@@H](NC(=O)CCCCCCCCCOc1ccc(C(=O)O)cc1)C(=O)O)C(=O)O)C(=O)NCC(=O)O)C(C)C` [Example 26] (H-HAEGTFTSDVSSYLEGQAVRK([γGlu-AEEA-AEEA-d(γGlu)-Decanoyl(10-(4-HOOC-PhO))])FIAWLVQGK([γGlu-AEEA-AEEA-d(γGlu)-Decanoyl(10-(4-HOOC-PhO))])G-OH; N-terminus and C-terminus assumed) had an EC50 on human GLP-1 receptor [2] of 0.2 nM. Also, the IC50 at human GLP-1 receptor [3] (setting [4]) worked out at 0.38 nM.
On to `CC[C@H](C)[C@H](NC(=O)[C@H](Cc1ccccc1)NC(=O)[C@H](CCCCNC(=O)COCCOCCNC(=O)COCCOCCNC(=O)CC[C@H](NC(=O)CCCCCCCCCCCCC(=O)O)C(=O)O)NC(=O)[C@H](CCCNC(=N)N)NC(=O)[C@@H](NC(=O)[C@H](CCCCNC(=O)COCCOCCNC(=O)COCCOCCNC(=O)CC[C@H](NC(=O)CCCCCCCCCCCCC(=O)O)C(=O)O)NC(=O)[C@H](CCC(N)=O)NC(=O)[C@H](CCC(=O)O)NC(=O)[C@H](CCC(=O)O)NC(=O)[C@H](CC(C)C)NC(=O)[C@H](Cc1ccc(O)cc1)NC(=O)[C@H](CO)NC(=O)[C@H](CO)NC(=O)[C@@H](NC(=O)[C@H](CC(=O)O)NC(=O)[C@H](CO)NC(=O)[C@@H](NC(=O)[C@H](Cc1ccccc1)NC(=O)[C@@H](NC(=O)CNC(=O)[C@H](CCC(=O)O)NC(=O)C(C)(C)NC(=O)[C@@H](N)Cc1c[nH]cn1)[C@@H](C)O)[C@@H](C)O)C(C)C)C(C)C)C(=O)N[C@@H](C)C(=O)N[C@@H](Cc1c[nH]cn1)C(=O)N[C@@H](CC(C)C)C(=O)N[C@H](C(=O)N[C@@H](CCC(N)=O)C(=O)NCC(=O)N[C@@H](CCCNC(=N)N)C(=O)NCC(=O)O)C(C)C` [Example 29, N^ε24-[2-[2-[2-[[2-[2-[2-[[(4S)-4-carboxy-4-(13-carboxytridecanoylamino)butanoyl]amino]ethoxy]ethoxy]acetyl]amino]ethoxy]ethoxy]acetyl], N^ε27-[2-[2-[2-[[2-[2-[2-[[(4S)-4-carboxy-4-(13-carboxytridecanoylamino)butanoyl]amino]ethoxy]ethoxy]acetyl]amino]ethoxy]ethoxy]acetyl]-[Aib^8,Glu^22,Lys^24,Val^25,Arg^26,Lys^27,His^31,Gln^34]-GLP-1-(7-37)-peptide] (H-H[Aib]EGTFTSDVSSYLEEQK([AEEA-AEEA-γGlu-C14 diacid])VRK([AEEA-AEEA-γGlu-C14 diacid])FIAHLVQGRG-OH), for which a half-maximal effect at human GLP-1 receptor [2] (EC50) was put at 0.04 nM. Moreover, at human GLP-1 receptor [3] (2.0% HSA vs 0.001% HSA), the “Ratio [(IC50/nM) high HSA]/[(IC50/nM) low HSA]” value is given as 92. The IC50 on human GLP-1 receptor [3] (high albumin, 2.0% HSA, read-out: IC50/nM (high HSA)) turned out to be 363 nM; at human GLP-1 receptor [3] (setting [4]) it was 3.95 nM.

The term EC50 denotes the concentration that produces a half-maximal response. Low readings indicate an effect from little substance, high ones a need for much substance.
